In general, MIC refers to the least concentration at which growth counts as inhibited. Low values mean a more susceptible organism, high ones a less susceptible organism.

This is an account of results in ChEMBL document CHEMBL3621169, “Synthesis of tetrazole compounds as a novel type of potential antimicrobial agents and their synergistic effects with clinical drugs and interactions with calf thymus DNA” (Medchemcomm, 2015).

Type in all cases: functional
The test system of one assay is Pseudomonas aeruginosa. Put plainly: Antibacterial activity against Pseudomonas aeruginosa ATCC 27853 after 24 hrs by micro broth dilution method. Conditions: ATCC 27853, 24 h. A general note: Broth dilution looks for growth in wells or tubes with falling amounts of substance.
The test system of a further assay is Escherichia coli. Put plainly: Antibacterial activity against Escherichia coli DH52 after 24 hrs by micro broth dilution method. The settings on record: DH52, 24 h.
For the next assay, the system named is Aspergillus flavus. Put plainly: Antifungal activity against Aspergillus flavus after 24 hrs by micro broth dilution method.
The subject of the next assay is Micrococcus luteus. Put plainly: Antibacterial activity against Micrococcus luteus ATCC 4698 after 24 hrs by micro broth dilution method. The settings on record: ATCC 4698, 24 h.
A further assay relates to Bacillus sp. Put plainly: Antibacterial activity against Bacillus proteus ATCC 13315 after 24 hrs by micro broth dilution method. Conditions: Bacillus sp. (in: firmicutes), ATCC 13315, 24 h.
In the next assay the test system is Bacillus spizizenii. Put plainly: Antibacterial activity against Bacillus subtilis ATCC 6633 after 24 hrs by micro broth dilution method. Conditions: ATCC 6633, 24 h.
A further assay has as its system Cyberlindnera jadinii. Put plainly: Antifungal activity against Candida utilis ATCC 9950 after 24 hrs by micro broth dilution method. The settings on record: Williopsis jadinii, ATCC 9950, 24 h.
The test system of assay [1] is Staphylococcus aureus. Put plainly: Antibacterial activity against Staphylococcus aureus ATCC 25923 after 24 hrs by micro broth dilution method. The settings on record: ATCC 25923, 24 h.
In the next assay the test system is Candida albicans. Put plainly: Antifungal activity against Candida albicans ATCC 90029 after 24 hrs by micro broth dilution method. Conditions: ATCC 90029, 24 h.
The subject of the next assay is Candida. Put plainly: Antifungal activity against Candida mycoderma after 24 hrs by micro broth dilution method.
Assay [2] concerns Staphylococcus aureus. Put plainly: Antibacterial activity against methicillin-resistant Staphylococcus aureus N315 after 24 hrs by micro broth dilution method. The settings on record: N315, 24 h.
The test system of another assay is Shigella dysenteriae. Put plainly: Antibacterial activity against Shigella dysenteriae ATCC 51252 after 24 hrs by micro broth dilution method. Conditions: ATCC 51252, 24 h.

Values after ≈ are worked out from the molar mass of the structure shown.

For `N#CCN(Cc1ccccc1Cl)c1ccccc1`, the MIC stood at 128 µg/mL (≈ 499 µM) against Pseudomonas aeruginosa; 256 µg/mL (≈ 997 µM) against Escherichia coli; 128 µg/mL (≈ 499 µM) in the assay on Aspergillus flavus; 256 µg/mL (≈ 997 µM) against Micrococcus luteus; 128 µg/mL (≈ 499 µM) in the assay on Bacillus sp.; 256 µg/mL (≈ 997 µM) against Bacillus spizizenii. Further, the MIC in the assay on Cyberlindnera jadinii was found to be 64 µg/mL (≈ 249 µM); against Staphylococcus aureus [1], 128 µg/mL (≈ 499 µM); against Candida albicans, 128 µg/mL (≈ 499 µM); against Candida, 64 µg/mL (≈ 249 µM); against Staphylococcus aureus [2], 128 µg/mL (≈ 499 µM); with Shigella dysenteriae, 128 µg/mL (≈ 499 µM).
Turning to `COc1ccc(N(CC#N)Cc2ccc(F)cc2F)cc1`, the MIC in the assay on Pseudomonas aeruginosa stood at 128 µg/mL (≈ 444 µM); against Escherichia coli, 256 µg/mL (≈ 888 µM); in the assay with Aspergillus flavus it was 128 µg/mL (≈ 444 µM); against Micrococcus luteus, 128 µg/mL (≈ 444 µM); against Bacillus sp., 256 µg/mL (≈ 888 µM); with Bacillus spizizenii, 128 µg/mL (≈ 444 µM). The MIC in the assay with Cyberlindnera jadinii is 128 µg/mL (≈ 444 µM); with Staphylococcus aureus [1] it was 256 µg/mL (≈ 888 µM); in the assay on Candida albicans it was 128 µg/mL (≈ 444 µM); against Candida, 256 µg/mL (≈ 888 µM); with Staphylococcus aureus [2] it was 256 µg/mL (≈ 888 µM); against Shigella dysenteriae it was 256 µg/mL (≈ 888 µM).
In the case of `N#CCN(Cc1ccc(Cl)c(Cl)c1)c1ccccc1`, the MIC against Pseudomonas aeruginosa was found to be 256 µg/mL (≈ 879 µM); with Escherichia coli it was 256 µg/mL (≈ 879 µM); in the assay on Aspergillus flavus, 256 µg/mL (≈ 879 µM); against Micrococcus luteus it was 256 µg/mL (≈ 879 µM); in the assay with Bacillus sp., 256 µg/mL (≈ 879 µM); against Bacillus spizizenii, 128 µg/mL (≈ 440 µM). Further, the MIC against Cyberlindnera jadinii came to 256 µg/mL (≈ 879 µM); against Staphylococcus aureus [1], 256 µg/mL (≈ 879 µM); against Candida albicans, 64 µg/mL (≈ 220 µM); in the assay on Candida, 128 µg/mL (≈ 440 µM); in the assay with Staphylococcus aureus [2], 256 µg/mL (≈ 879 µM); in the assay on Shigella dysenteriae, 128 µg/mL (≈ 440 µM).
Take `N#CCN(Cc1ccc(F)cc1)c1ccccc1`: the MIC in the assay on Pseudomonas aeruginosa is 256 µg/mL (≈ 1070 µM); with Escherichia coli it was 128 µg/mL (≈ 533 µM); in the assay with Aspergillus flavus it was 128 µg/mL (≈ 533 µM); in the assay on Micrococcus luteus, 512 µg/mL (≈ 2130 µM); in the assay with Bacillus sp. it was 256 µg/mL (≈ 1070 µM); against Bacillus spizizenii, 128 µg/mL (≈ 533 µM). Further, the MIC against Cyberlindnera jadinii was found to be 128 µg/mL (≈ 533 µM); with Staphylococcus aureus [1], 256 µg/mL (≈ 1070 µM); with Candida albicans it was 64 µg/mL (≈ 266 µM); in the assay on Candida, 128 µg/mL (≈ 533 µM); against Staphylococcus aureus [2], 128 µg/mL (≈ 533 µM); in the assay with Shigella dysenteriae, 128 µg/mL (≈ 533 µM).
In the case of `Cc1ccc(N(CC#N)Cc2ccc(Cl)cc2Cl)cc1`, the MIC against Pseudomonas aeruginosa turned out to be 256 µg/mL (≈ 839 µM); with Escherichia coli it was 256 µg/mL (≈ 839 µM); against Aspergillus flavus, 128 µg/mL (≈ 419 µM); against Micrococcus luteus, 512 µg/mL (≈ 1680 µM); in the assay on Bacillus sp., 512 µg/mL (≈ 1680 µM); with Bacillus spizizenii it was 512 µg/mL (≈ 1680 µM). Also, the MIC in the assay on Cyberlindnera jadinii was 64 µg/mL (≈ 210 µM); with Staphylococcus aureus [1] it was 128 µg/mL (≈ 419 µM); in the assay on Candida albicans, 64 µg/mL (≈ 210 µM); in the assay with Candida it was 512 µg/mL (≈ 1680 µM); with Staphylococcus aureus [2] it was 128 µg/mL (≈ 419 µM); in the assay with Shigella dysenteriae it was 256 µg/mL (≈ 839 µM).
`N#CCN(Cc1ccc(Cl)cc1)c1ccccc1`: the MIC against Pseudomonas aeruginosa came out at 64 µg/mL (≈ 249 µM); in the assay with Escherichia coli it was 128 µg/mL (≈ 499 µM); with Aspergillus flavus it was 256 µg/mL (≈ 997 µM); with Micrococcus luteus it was 128 µg/mL (≈ 499 µM); in the assay on Bacillus sp., 128 µg/mL (≈ 499 µM); with Bacillus spizizenii it was 128 µg/mL (≈ 499 µM). Further, the MIC in the assay with Cyberlindnera jadinii was 128 µg/mL (≈ 499 µM); against Staphylococcus aureus [1], 128 µg/mL (≈ 499 µM); with Candida albicans it was 128 µg/mL (≈ 499 µM); in the assay with Candida it was 128 µg/mL (≈ 499 µM); with Staphylococcus aureus [2], 256 µg/mL (≈ 997 µM); in the assay on Shigella dysenteriae, 128 µg/mL (≈ 499 µM).
Regarding `OC(Cn1cncn1)(Cn1cncn1)c1ccc(F)cc1F` [FLUCONAZOLE], the MIC in the assay on Aspergillus flavus worked out at 64 µg/mL (≈ 209 µM); against Cyberlindnera jadinii it was 1 µg/mL (≈ 3.27 µM); against Candida albicans it was 0.5 µg/mL (≈ 1.63 µM); in the assay on Candida, 2 µg/mL (≈ 6.53 µM).
As for `N#CCN(Cc1ccc(Cl)cc1Cl)c1ccccc1`, the MIC against Pseudomonas aeruginosa was determined as 256 µg/mL (≈ 879 µM); in the assay with Escherichia coli, 128 µg/mL (≈ 440 µM); against Aspergillus flavus, 256 µg/mL (≈ 879 µM); against Micrococcus luteus, 256 µg/mL (≈ 879 µM); in the assay on Bacillus sp., 256 µg/mL (≈ 879 µM); against Bacillus spizizenii, 128 µg/mL (≈ 440 µM). The MIC stood at 128 µg/mL (≈ 440 µM) in the assay with Cyberlindnera jadinii; 256 µg/mL (≈ 879 µM) against Staphylococcus aureus [1]; 128 µg/mL (≈ 440 µM) in the assay with Candida albicans; 64 µg/mL (≈ 220 µM) against Candida; 256 µg/mL (≈ 879 µM) with Staphylococcus aureus [2]; 256 µg/mL (≈ 879 µM) in the assay on Shigella dysenteriae.
As for `CCCCCCCCCCN(CC#N)c1ccccc1`, the MIC amounted to 256 µg/mL (≈ 940 µM) in the assay on Pseudomonas aeruginosa; 64 µg/mL (≈ 235 µM) in the assay on Escherichia coli; 128 µg/mL (≈ 470 µM) with Aspergillus flavus; 128 µg/mL (≈ 470 µM) with Micrococcus luteus; 128 µg/mL (≈ 470 µM) against Bacillus sp.; 64 µg/mL (≈ 235 µM) against Bacillus spizizenii. The MIC with Cyberlindnera jadinii was determined as 256 µg/mL (≈ 940 µM); against Staphylococcus aureus [1] it was 128 µg/mL (≈ 470 µM); against Candida albicans, 128 µg/mL (≈ 470 µM); against Candida, 128 µg/mL (≈ 470 µM); in the assay on Staphylococcus aureus [2], 128 µg/mL (≈ 470 µM); against Shigella dysenteriae, 512 µg/mL (≈ 1880 µM).
With `N#CCN(Cc1ccc(F)cc1F)c1ccccc1`, the MIC against Pseudomonas aeruginosa was 128 µg/mL (≈ 496 µM); against Escherichia coli, 64 µg/mL (≈ 248 µM); in the assay with Aspergillus flavus, 256 µg/mL (≈ 991 µM); in the assay on Micrococcus luteus, 256 µg/mL (≈ 991 µM); in the assay with Bacillus sp. it was 256 µg/mL (≈ 991 µM); against Bacillus spizizenii, 256 µg/mL (≈ 991 µM). In addition, the MIC with Cyberlindnera jadinii came out at 512 µg/mL (≈ 1980 µM); against Staphylococcus aureus [1], 128 µg/mL (≈ 496 µM); against Candida albicans, 128 µg/mL (≈ 496 µM); with Candida, 256 µg/mL (≈ 991 µM); with Staphylococcus aureus [2], 256 µg/mL (≈ 991 µM); against Shigella dysenteriae, 256 µg/mL (≈ 991 µM).
